The assay deals with T1, human 5HT2c receptor (VNV Isoform) (Homo sapiens, UniProt P28335, I156V/I160V).
T1 construct: expressed in transfected cells; host or cells: HEK 293 EBNA
T1 sequence (P28335 33-458 I156V/I160V): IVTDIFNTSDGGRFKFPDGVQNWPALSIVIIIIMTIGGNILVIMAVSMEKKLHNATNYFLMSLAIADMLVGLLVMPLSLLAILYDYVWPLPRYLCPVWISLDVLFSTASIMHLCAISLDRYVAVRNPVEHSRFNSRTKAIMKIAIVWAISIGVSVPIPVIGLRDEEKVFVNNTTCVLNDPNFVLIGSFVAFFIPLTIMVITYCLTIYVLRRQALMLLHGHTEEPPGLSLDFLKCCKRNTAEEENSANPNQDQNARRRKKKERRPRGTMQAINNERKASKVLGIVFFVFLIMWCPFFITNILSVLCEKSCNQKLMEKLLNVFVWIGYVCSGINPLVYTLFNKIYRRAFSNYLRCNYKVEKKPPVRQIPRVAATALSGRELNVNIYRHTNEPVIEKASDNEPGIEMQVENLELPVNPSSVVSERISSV
The assay can be described thus: Calcium mobilization (FLIPR) 5HT2c receptor agonist assay. It counts as cell-based. To be noted: HEK 293 EBNA cells expressing human 5HT2c receptor (VNV isoform), agonist-induced calcium fluorescence, read-out: 5-HT2c EC50 (hVNV). On the procedure: The following procedure was utilized to evaluate representative compounds of the present invention as 5HT2c, receptor agonists.
5HT was utilized as a positive control. Ligand-induced calcium release and consequent fluorescence was measured on a Fluorometric Imaging Plate Reader (FLIPR, Molecular Device, CA).
All data were analyzed by nonlinear least square curve fitting using Prism 4.0 software. Agonist stimulation of calcium-induced fluorescence in FLIPR was fitted to sigmoidal dose response using equation Y=Bottom+(Top−Bottom)/(1+10^((Log EC50−X))), where X is the logarithm of concentration of compounds and Y is the fluorescent response.
A general note: A change in cytosolic calcium serves as a functional read-out for many receptors and channels.

`CC(C)(C)C(=O)c1sc2c(c1Cl)CCNCC2` [Example 19, 1-(3-Chloro-5,6,7,8-tetrahydro-4H-thieno[2,3-d]azepin-2-yl)-2,2-dimethyl-propan-1-one]: the EC50 was less than 0.1 µM. Consider `CC1CNCCc2sc3c(c21)C(C)(C)CC3C(F)(F)F` (single isomer, unassigned) [17 Diastereomer 1], for which the EC50 is less than 0.1 µM. In the case of `CC(c1cc2c(s1)CCNCC2)C(F)(F)F` (racemic) [Example 4, (R,S)-2-(2,2,2-Trifluoro-1-methyl-ethyl)-5,6,7,8-tetrahydro-4H-thieno[2,3-d]azepine] it was less than 0.01 µM.

As for `CC1Cc2cc(Br)sc2CCN1` (racemic) [Example 15, (R,S)-2-Bromo-5-methyl-5,6,7,8-tetrahydro-4H-thieno[2,3-d]azepine], the EC50 was less than 1 µM. Then `CC1(C)CC2CNCCc3sc(Br)c1c32` (racemic) [Example 14, (R,S)-2-Bromo-3,3-dimethyl-4,4a,5,6,7,8-hexahydro-3H-1-thia-6-aza-cyclopenta[cd]azulene], with less than 1 µM. In the case of `CC(C)(c1cc2c(s1)CCNCC2)C(F)(F)F` [Example 8, 2-(2,2,2-Trifluoro-1,1-dimethyl-ethyl)-5,6,7,8-tetrahydro-4H-thieno[2,3-d]azepine] it was less than 0.1 µM; in that of `FC(F)(F)C1CCc2c1sc1c2CCNCC1` (racemic) [Example 6, (R,S)-1-Trifluoromethyl-1,2,3,4,5,6,7,8-octahydro-9-thia-6-aza-cyclopenta[a]azulene], less than 0.01 µM; in that of `CCS(=O)(=O)c1sc2c(c1C)C(C)CNCC2` (single isomer, unassigned) [Example 10, 2-Ethanesulfonyl-3,4-dimethyl-5,6,7,8-tetrahydro-4H-thieno[2,3-d]azepine], less than 0.1 µM. Then `CC1CNCCc2sc(CC(F)(F)F)c(Br)c21` (single isomer, unassigned) [Example 9, 3-Bromo-4-methyl-2-(2,2,2-trifluoro-ethyl)-5,6,7,8-tetrahydro-4H-thieno[2,3-d]azepine], with less than 0.1 µM; and `CC(C)(C)C(=O)c1cc2c(s1)CCNCC2` [Example 18, 2,2-Dimethyl-1-(5,6,7,8-tetrahydro-4H-thieno[2,3-d]azepin-2-yl)-propan-1-one], with less than 0.01 µM. On to `CC1(C)CC(C(F)(F)F)c2sc3c(c21)CCNCC3` (racemic) [Example 7, (R,S)-3,3-Dimethyl-1-trifluoromethyl-1,2,3,4,5,6,7,8-octahydro-9-thia-6-aza-cyclopenta[a]azulene], for which the EC50 is less than 1 µM. With `CCS(=O)(=O)c1cc2c(s1)CCNCC2` [Example 5, 2-Ethanesulfonyl-5,6,7,8-tetrahydro-4H-thieno[2,3-d]azepine], the EC50 is less than 0.01 µM. In the case of `CC1CNCCc2sc(C(=O)C(C)(C)C)c(Br)c21` (single isomer, unassigned) [Example 12, 1-(3-Bromo-4-methyl-5,6,7,8-tetrahydro-4H-thieno[2,3-d]azepin-2-yl)-2,2-dimethyl-propan-1-one] it was less than 0.1 µM.

With `O=S(=O)(c1ccccc1)c1cc2c(s1)CCNCC2` [Example 3, 2-Benzenesulfonyl-5,6,7,8-tetrahydro-4H-thieno[2,3-d]azepine], the EC50 is less than 0.01 µM. Then `CC1CNCCc2sc(C(=O)C(C)(C)C)cc21` (racemic) [Example 11, (R,S)-2,2-Dimethyl-1-(4-methyl-5,6,7,8-tetrahydro-4H-thieno[2,3-d]azepin-2-yl)-propan-1-one], with less than 0.1 µM; and `FC(F)(F)Cc1sc2c(c1Br)CCNCC2` [Example 2, 3-Bromo-2-(2,2,2-trifluoro-ethyl)-5,6,7,8-tetrahydro-4H-thieno[2,3-d]azepine], with less than 0.01 µM; and `Cc1c(C(=O)C(C)(C)C)sc2c1CCNCC2` [Example 1, 2,2-Dimethyl-1-(3-methyl-5,6,7,8-tetrahydro-4H-thieno[2,3-d]azepin-2-yl)-propan-1-one], with less than 0.1 µM. Then `CC1CNCCc2sc3c(c21)C(C)(C)CC3C(F)(F)F` (single isomer, unassigned) [17 Diastereomer 2], with less than 1 µM; and `CC1CNCCc2sc3c(c21)CCC3C(F)(F)F` (single isomer, unassigned) [Example 16, 4-Methyl-1-trifluoromethyl-1,2,3,4,5,6,7,8-octahydro-9-thia-6-aza-cyclopenta[a]azulene], with less than 0.1 µM. In the case of `FC(F)(F)Cc1sc2c3c1CCC3CNCC2` (racemic) [Example 13, (R,S)-2-(2,2,2-Trifluoro-ethyl)-4,4a,5,6,7,8-hexahydro-3H-1-thia-6-aza-cyclopenta[cd]azulene] it was less than 0.1 µM.

In general, EC50 refers to the concentration needed to bring the measured effect to its halfway point.

For the origin of these results see patent US8716276B2, “Thiophenyl and pyrrolyl azepines as serotonin 5-HT2C receptor ligands and uses thereof” (Athersys, Inc., priority 2006, dated 2014).
